Measured values from patent publication US9763957B2, “Autotaxin inhibitors” (Novartis AG, priority 2013, dated 2017).

target: Recombinant human ATX (Homo sapiens (Human), UniProt Q13822); test: ATX inhibition assay (choline release, Amplex Red fluorescence); assay type: biochemical; conditions: ATX 10 nM, LPC 18:1 10 μM, 37° C., 20 min pre-incubation; mean of n≧2
Method: Reagents—LPC (oleoyl (18:1)) was purchased from Avanti Polar Lipids (Alabaster, Ala.) and solubilized in methanol to 20 mM. Amplex Red was obtained from Invitrogen Life Technologies (Paisley, UK) and dissolved in DMSO to 10 mM. Choline oxidase and horseradish peroxidase (HRP) were obtained from Sigma Aldrich (Dorset, UK) and dissolved in HBSS to 20 U/ml and 200 U/ml respectively. All reagents were stored at −20° C. in single use aliquots. All experimental measurements were performed in assay buffer made up immediately prior to use (HBSS, 0.01% BSA essentially fatty acid free).
PerkinElmer EnVision (Fluorescence Intensity/Absorbance Monochromator) or Tecan Infinite 200 PRO series plate reader was used to detect change in fluorescent intensity.
Assessing ATX inhibition—ATX activity was determined by measurement of released choline in reactions containing ATX (10 nM), choline oxidase (0.1 U/ml), HRP (100 U/ml), amplex red (50 μM) and LPC 18:1 (10 μM). Compounds of the invention were prepared as 10 point serial dilutions from 1 μM in duplicate and pre-incubated with ATX at 37° C. for 20 minutes prior to the addition of remaining reagents. The liberated choline was measured from changes in fluorescence intensity (λex 530 nm, λem 590 nm) of the product resurofin at 37° C. every 2 minutes over a 40-minute period. ATX activity was measured as a slope of the linear portion of the progress curve, typically between 14 to 24 minutes.
Data analysis—Slope data was exported to Graphpad prism (Graphpad software, San Diego, Calif.) where data was fitted to equation 1. Y=Bottom+(Top-Bottom)/(1+10^((Log IC50−X)*HillSlope)) Equation 1: […]

SMILES	IC50 [nM]
Cc1nnn(Cc2c(F)cccc2/C=C/C(=O)N2CCC(Cc3nnc(C)o3)CC2)n1 [Example 78, (E)-3-(3-Fluoro-2-((5-methyl-2H-tetrazol-2-yl)methyl)phenyl)-1-(4-((5-methyl-1,3,4-oxadiazol-2-yl)methyl)piperidin-1-yl)prop-2-en-1-one]	1460
Cc1noc(C2CCCCN2C(=O)/C=C/c2ccc(C(F)(F)F)cc2Cn2nnc(C)n2)n1 (single isomer, unassigned) [Example 5b, (R,E)-1-(2-(3-methyl-1,2,4-oxadiazol-5-yl)piperidin-1-yl)-3-(2-((5-methyl-2H-tetrazol-2-yl)methyl)-4-(trifluoromethyl)phenyl)prop-2-en-1-one or (S,E)-1-(2-(3-methyl-1,2,4-oxadiazol-5-yl)piperidin-1-yl)-3-(2-((5-methyl-2H-tetrazol-2-yl)methyl)-4-(trifluoromethyl)phenyl)prop-2-en-1-one]	120
Cc1nnn(Cc2cc(Cl)ccc2/C=C/C(=O)N2CCN(Cc3nc4ccccc4n3C)CC2)n1 [Example 140.4, (E)-3-(4-Chloro-2-((5-methyl-2H-tetrazol-2-yl)methyl)phenyl)-1-(4-((1-methyl-1H-benzo[d]imidazol-2-yl)methyl)piperazin-1-yl)prop-2-en-1-one]	43
CC(=O)NC1CCN(C(=O)/C=C/c2ccc(Cl)cc2Cn2nnc(C)n2)CC1 [Example 125, (E)-N-(1-(3-(4-Chloro-2-((5-methyl-2H-tetrazol-2-yl)methyl)phenyl)acryloyl)piperidin-4-yl)acetamide]	110
Cc1nnn(Cc2cc(C(F)(F)F)ccc2/C=C/C(=O)N2CCCCC2c2noc(C)n2)n1 (single isomer, unassigned) [Example 38a, (R or S, E)-1-(2-(5-Methyl-1,2,4-oxadiazol-3-yl)piperidin-1-yl)-3-(2-((5-methyl-2H-tetrazol-2-yl)methyl)-4-(trifluoromethyl)phenyl)prop-2-en-1-one]	20
Cc1noc(C2CCCCN2C(=O)/C=C/c2ccc(Cl)cc2Cn2nnc(C)n2)n1 (racemic) [Example 23, (rac)-(E)-3-(4-Chloro-2-((5-methyl-2H-tetrazol-2-yl)methyl)phenyl)-1-(2-(3-methyl-1,2,4-oxadiazol-5-yl)piperidin-1-yl)prop-2-en-1-one]	28
Cc1nnn(Cc2cc(C(F)(F)F)ccc2/C=C/C(=O)N2CCN(Cc3coc(C)n3)C[C@H]2C)n1 [Example 69, (R,E)-3-(2-((5-Methyl-2H-tetrazol-2-yl)methyl)-4-(trifluoromethyl)phenyl)-1-(2-methyl-4-((2-methyloxazol-4-yl)methyl)piperazin-1-yl)prop-2-en-1-one]	2
Cc1nnn(Cc2cc(Cl)ccc2/C=C/C(=O)N2CCC(CCO)CC2)n1 [Example 49.6, (E)-3-(4-Chloro-2-((5-methyl-2H-tetrazol-2-yl)methyl)phenyl)-1-(4-(2-hydroxyethyl)piperidin-1-yl)prop-2-en-1-one]	110
Cc1cnn(C2CCN(C(=O)/C=C/c3ccc(Cl)cc3Cn3nnc(C)n3)CC2)n1 [Example 25, (E)-3-(4-Chloro-2-((5-methyl-2H-tetrazol-2-yl)methyl)phenyl)-1-(4-(4-methyl-2H-1,2,3-triazol-2-yl)piperidin-1-yl)prop-2-en-1-one]	8.5
Cc1nnn(Cc2cc(Cl)ccc2/C=C/C(=O)N2CCCC[C@H]2C)n1 [Example 49.14, (R,E)-3-(4-Chloro-2-((5-methyl-2H-tetrazol-2-yl)methyl)phenyl)-1-(2-methylpiperidin-1-yl)prop-2-en-1-one]	85
Cc1noc(C2CCCCN2C(=O)/C=C/c2ccc(Cl)cc2Cn2nnc(C)n2)n1 (single isomer, unassigned) [Example 23a, (R)- or (S)-(E)-3-(4-Chloro-2-((5-methyl-2H-tetrazol-2-yl)methyl)phenyl)-1-(2-(3-methyl-1,2,4-oxadiazol-5-yl)piperidin-1-yl)prop-2-en-1-one]	9.5
Cc1nnn(Cc2cc(C(F)(F)F)ccc2/C=C/C(=O)N2CCCCC2c2noc(C)n2)n1 (single isomer, unassigned) [Example 38b, (R or S, E)-1-(2-(5-methyl-1,2,4-oxadiazol-3-yl)piperidin-1-yl)-3-(2-((5-methyl-2H-tetrazol-2-yl)methyl)-4-(trifluoromethyl)phenyl)prop-2-en-1-one]	410
Cc1nnn(Cc2cc(C(F)(F)F)ccc2/C=C/C(=O)N2CCOCC2C(F)(F)F)n1 (centres unmarked) [Example 142, (E)-3-(2-((5-Methyl-2H-tetrazol-2-yl)methyl)-4-(trifluoromethyl)phenyl)-1-(3-(trifluoromethyl)morpholino)prop-2-en-1-one]	12
Cc1nnn(Cc2cc(Cl)ccc2/C=C/C(=O)N2CCC(CCc3nnc(C)o3)CC2)n1 [Example 20, (E)-3-(4-Chloro-2-((5-methyl-2H-tetrazol-2-yl)methyl)phenyl)-1-(4-(2-(5-methyl-1,3,4-oxadiazol-2-yl)ethyl)piperidin-1-yl)prop-2-en-1-one]	163
Cc1nnn(Cc2cc(Cl)ccc2/C=C/C(=O)N2CCC(n3nnc(C)n3)CC2)n1 [Example 17, (E)-3-(4-Chloro-2-((5-methyl-2H-tetrazol-2-yl)methyl)phenyl)-1-(4-(5-methyl-2H-tetrazol-2-yl)piperidin-1-yl)prop-2-en-1-one]	24
Cc1nnn(Cc2cc(Cl)ccc2/C=C/C(=O)N2CCC(CC(=O)N3CCOCC3)CC2)n1 [Example 129, (E)-3-(4-Chloro-2-((5-methyl-2H-tetrazol-2-yl)methyl)phenyl)-1-(4-(2-morpholino-2-oxoethyl)piperidin-1-yl)prop-2-en-1-one]	49
Cc1cc(CN2CCN(C(=O)/C=C/c3ccc(C(F)(F)F)cc3Cn3nnc(C)n3)CC2)on1 [Example 101, (E)-3-(2-((5-Methyl-2H-tetrazol-2-yl)methyl)-4-(trifluoromethyl)phenyl)-1-(4-((3-methylisoxazol-5-yl)methyl)piperazin-1-yl)prop-2-en-1-one]	5
Cc1nnn(Cc2cc(C(F)(F)F)ccc2/C=C/C(=O)N2CCC(NC(=O)CCCc3c[nH]nn3)CC2)n1 [Example 152, (E)-N-(1-(3-(2-((5-Methyl-2H-tetrazol-2-yl)methyl)-4-(trifluoromethyl)phenyl)acryloyl)piperidin-4-yl)-4-(1H-1,2,3-triazol-4-yl)butanamide]	3.9
Cc1nnn(Cc2cc(Cl)ccc2/C=C/C(=O)N2CCC(C(F)(F)F)CC2)n1 [Example 49.12, (E)-3-(4-Chloro-2-((5-methyl-2H-tetrazol-2-yl)methyl)phenyl)-1-(4-(trifluoromethyl)piperidin-1-yl)prop-2-en-1-one]	49
Cc1nnn(Cc2cc(Cl)ccc2/C=C/C(=O)N2CCN(Cc3cnn(C)c3)C[C@H]2C)n1 [Example 73, (R,E)-3-(4-Chloro-2-((5-methyl-2H-tetrazol-2-yl)methyl)phenyl)-1-(2-methyl-4-((1-methyl-1 H-pyrazol-4-yl)methyl)piperazin-1-yl)prop-2-en-1-one]	4.2
Cc1nnn(Cc2cc(OC(F)(F)F)ccc2/C=C/C(=O)N2CCC(c3nnc(C)o3)CC2)n1 [Example 54, (E)-1-(4-(5-Methyl-1,3,4-oxadiazol-2-yl)piperidin-1-yl)-3-(2-((5-methyl-2H-tetrazol-2-yl)methyl)-4-(trifluoromethoxy)phenyl)prop-2-en-1-one]	8.9
CNC(=O)COC1CCN(C(=O)/C=C/c2ccc(Cl)cc2Cn2nnc(C)n2)CC1 [Example 49.19, (E)-2-((1-(3-(4-Chloro-2-((5-methyl-2H-tetrazol-2-yl)methyl)phenyl)acryloyl)piperidin-4-yl)oxy)-N-methylacetamide]	176
Cc1nnn(Cc2cc(C(F)(F)F)ccc2/C=C/C(=O)N2CCN(Cc3cnn(C)c3)C[C@H]2C)n1 [Example 70, (R,E)-3-(2-((5-Methyl-2H-tetrazol-2-yl)methyl)-4-(trifluoromethyl)phenyl)-1-(2-methyl-4-((1-methyl-1H-pyrazol-4-yl)methyl)piperazin-1-yl)prop-2-en-1-one]	4.2
Cc1nnn(Cc2cc(Cl)ccc2/C=C/C(=O)N2CCN(Cc3cc(-c4ccccc4)nn3C)CC2)n1 [Example 140.6, (E)-3-(4-Chloro-2-((5-methyl-2H-tetrazol-2-yl)methyl)phenyl)-1-(4-((1-methyl-3-phenyl-1H-pyrazol-5-yl)methyl)piperazin-1-yl)prop-2-en-1-one]	42
Cc1cc(CC(=O)N(C)C2CCN(C(=O)/C=C/c3ccc(C(F)(F)F)cc3Cn3nnc(C)n3)CC2)on1 [Example 95, (E)-N-Methyl-N-(1-(3-(2-((5-methyl-2H-tetrazol-2-yl)methyl)-4-(trifluoromethyl)phenyl)acryloyl)piperidin-4-yl)-2-(3-methylisoxazol-5-yl)acetamide]	25
Cc1nnn(Cc2cc(Cl)ccc2/C=C/C(=O)N2CCCCC2c2nc(C(C)C)no2)n1 (single isomer, unassigned) [Example 30b, (R or S, E)-3-(4-chloro-2-((5-methyl-2H-tetrazol-2-yl)methyl)phenyl)-1-(2-(3-isopropyl-1,2,4-oxadiazol-5-yl)piperidin-1-yl)prop-2-en-1-one]	100
